Measurements from US11261175B2 (priority 2017, dated 2022).

Key:
Format in all cases: cell-based
[1] = test system: HCV replicon NK5.1-Gluc (genotype 1b); assay: Anti-HCV activity using HCV replicon NK5.1-Gluc (genotype 1b) in Huh 7.5.1 cells, luciferase readout; conditions: Hepatitis C virus, 72 h; Huh 7.5.1 cells with NK5.1-Gluc replicon, 3 days, Gaussia luciferase; read-out: HCV wt. GT-1b
[2] = test system: JFH5a-Rluc-ad34 virus (HCV GT-2a); assay: Anti-HCV activity using HCVcc (JFH5a-Rluc-ad34 virus) in Huh 7.5.1 cells, Renilla luciferase readout; conditions: Hepatitis C virus, GT2A, Huh-7.5.1, 72 h, read-out: HCV wt. GT-2a
Description: <Experimental Example 1> Measurement of Anti-HCV Activity of Compounds of Examples Using HCVcc
Step 1: Cell Line and Cell Culture
Huh 7.5.1 cells were grown in Dulbecco's Modified Eagle's medium (DMEM; Gibco) supplemented with antibiotics (100 U/mL penicillin, 10 μg/mL streptomycin) and 10% heat-inactivated fetal bovine serum (ΔFBS; PEAK) in a CO2 incubator at 37° C. with […].
Huh7.5.1 cells were transfected with in vitro transcription RNA of JFH5a-Rluc-ad34, a derivative of JFH1 with adaptive mutations in E2 and p7 regions, by electroporation. JFH5a-Rluc-ad34 virus contains Renilla luciferase (Rluc), which is convenient for virus proliferation assay. The cell culture medium containing HCV was collected 3-5 days after the electroporation and then filtered through a […] pore size filter.
Step 3: Antiviral Activity Test Using Infectious HCV Particles
Huh 7.5.1 cells were inoculated with JFH5a-Rluc-ad34 virus and incubated for 4 hours. Four hours after the virus inoculation, the Huh7.5.1 cells infected with HCV were cultured in the medium containing the compound of examples serially diluted. Three days later, the cells were harvested and the intracellular luciferase activity was measured using Renilla luciferase assay system (Promega). Finally, the luciferase activity was normalized with those obtained from the negative control cells (mock-treated cells).

[3] = test system: HCV replicon S52-Feo (genotype 3a); assay: Anti-HCV activity using HCV replicon S52-Feo (genotype 3a) in Huh 7.5.1 cells, luciferase readout; conditions: Hepatitis C virus, 72 h; Huh 7.5.1 cells with S52-Feo replicon, 3 days, firefly luciferase; read-out: HCV wt. GT-3a
[4] = test system: HCV genotype 1b replicon with NS5A L31V mutation; assay: Transiently transfected assay of genotype 1b resistance mutant RNA L31V; conditions: Hepatitis C virus, Huh-7.5.1, 72 h, read-out: HCV Mutation L31V
Description: (§1) <Experimental Example 3> Transiently Transfected Assay of Genotype 1b Resistance Mutant RNAs
(§2) Replicon genomes substituted with Y93H, L31V and L31V+Y93H (double mutant), the resistance mutants to Daclatasvir with mutations at the NS5A protein domain 1.
(§3) These HCV resistance mutant genomes were linearized with scal restriction enzyme, and then the mutated HCV RNA was synthesized through in vitro transcription. Huh 7.5.1 cells were individually electroporated with HCV RNA with resistant mutations and plated in a 12 well plate. After 4 hours, Huh7.5.1 cells were seeded in DMEM containing the compounds of examples serially diluted for 3 days. Three days later, the cells were harvested and the intracellular luciferase activity was measured. The luciferase activity was normalized with those obtained from the negative control cells (mock-treated cells).

[5] = test system: HCV genotype 1b replicon with NS5A Y93H mutation; assay: Transiently transfected assay of genotype 1b resistance mutant RNA Y93H; conditions: Hepatitis C virus, Huh-7.5.1, 72 h, read-out: HCV Mutation Y93H
Description: as §1, §2, §3

[6] = test system: HCV genotype 1b replicon with NS5A L31V+Y93H (double mutant); assay: Transiently transfected assay of genotype 1b resistance mutant RNA L31V+Y93H (double mutant); conditions: Hepatitis C virus, Huh-7.5.1, 72 h, read-out: HCV Mutation L31V + Y93H
Description: as §1, §2, §3

In the case of CCCCC1(CCCC)c2cc(NC(=O)[C@@H]3C[C@H](COC)CN3C(=O)[C@H](NC(=O)OC)c3ccccc3)ccc2-c2ccc(-c3cnc([C@@H]4CCCN4C(=O)[C@@H](NC(=O)OC)C(C)C)[nH]3)cc21 [Example 42, methyl ((S)-1-((S)-2-(5-(9,9-dibutyl-7-((2S,4S)-1-((R)-2-((methoxycarbonyl)amino)-2-phenylacetyl)-4-(methoxymethyl)pyrrolidine-2-carboxyamido)-9H-fluorene-2-yl)-1H-imidazole-2-yl)pyrrolidine-1-yl)-3-methyl-1-oxobutane-2-yl)carbamate], the EC50 [1] is reported as 0.01 to 0.1 nM, the EC50 [2] is reported as 0.1 to 1 nM and the EC50 [3] is reported as 0.1 to 1 nM. For the same molecule, the EC50 [4] was 0.001 to 0.01 nM, the EC50 [5] was 0.01 to 0.1 nM and the EC50 [6] was 1 to 100 nM.
Work on CCCCC1(CCCC)c2cc(NC(=O)[C@@H]3CCCN3C(=O)[C@H](NC(=O)OC)c3ccccc3)ccc2-c2ccc(NC(=O)[C@@H]3C[C@H](COC)CN3C(=O)[C@H](NC(=O)OC)c3ccccc3)cc21 [Example 37, methyl ((R)-2-((2S,4S)-2-((9,9-dibutyl-7-((S)-1-((R)-2-((methoxycarbonyl)amino)-2-phenylacetyl)pyrrolidine-2-carboxyamido)-9H-fluorene-2-yl)carbamoyl)-4-(methoxymethyl)pyrrolidine-1-yl)-2-oxo-1-phenylethyl)carbamate] yielded an EC50 [1] of 0.001 to 0.01 nM, an EC50 [2] of 0.1 to 1 nM and an EC50 [3] of 0.001 to 0.01 nM. The EC50 [4] was 0.001 to 0.01 nM, the EC50 [5] was 0.01 to 0.1 nM and the EC50 [6] was 1 to 100 nM.
CCCCC1(CCCC)c2cc(NC(=O)[C@@H]3CC4(CC4)CN3C(=O)[C@H](NC(=O)OC)c3ccccc3)ccc2-c2ccc(NC(=O)[C@@H]3CC4(CC4)CN3C(=O)[C@H](NC(=O)OC)c3ccccc3)cc21 [Example 21, dimethyl ((1R,1′R)-((6S,6′S)-(((9,9-dibutyl-9H-fluorene-2,7-diyl)bis(azanediyl))bis(carbonyl))bis(5-azaspiro[2.4]heptane-6,5-diyl))bis(2-oxo-1-phenylethane-2,1-diyl))dicarbamate] was tested, and the EC50 [1] was 0.001 to 0.01 nM, the EC50 [2] was 0.1 to 1 nM and the EC50 [3] was 0.01 to 0.1 nM. It also gave an EC50 [4] of 0.01 to 0.1 nM, an EC50 [5] of 1 to 100 nM and an EC50 [6] of 1 to 100 nM.
Molecule CCCCC1(CCCC)c2cc(NC(=O)[C@@H]3CC(=O)CN3C(=O)[C@H](NC(=O)OC)c3ccccc3)ccc2-c2ccc(NC(=O)[C@@H]3CC4(CN3C(=O)[C@H](NC(=O)OC)c3ccccc3)OCCO4)cc21 [Example 7, methyl ((R)-2-((S)-8-((9,9-dibutyl-7-((S)-1-((R)-2-((methoxycarbonyl)amino)-2-phenylacetyl)-4-oxopyrrolidine-2-carboxyamido)-9H-fluorene-2-yl)carbamoyl)-1,4-dioxa-7-azaspiro[4.4]nonane-7-yl)-2-oxo-1-phenylethyl)carbamate] has an EC50 [1] of 0.01 to 0.1 nM, an EC50 [2] of 1 to 100 nM and an EC50 [3] of 0.01 to 0.1 nM. It also gave an EC50 [4] of 0.001 to 0.01 nM, an EC50 [5] of 0.01 to 0.1 nM and an EC50 [6] of 0.1 to 1 nM.
Work on CCCCC1(CCCC)c2cc(NC(=O)[C@@H]3CC4(CC4)CN3C(=O)[C@H](NC(=O)OC)c3ccccc3)ccc2-c2ccc(NC(=O)[C@@H]3C[C@H]4CCC[C@H]4N3C(=O)[C@H](NC(=O)OC)c3ccccc3)cc21 [Example 25, methyl ((R)-2-((S)-6-((9,9-dibutyl-7-((2S,3aR,6aR)-1-((R)-2-((methoxycarbonyl)amino)-2-phenylacetyl)octahydrocyclopenta[b]pyrrole-2-carboxyamido)-9H-fluorene-2-yl)carbamoyl)-5-azaspiro[2.4]heptane-5-yl)-2-oxo-1-phenylethyl)carbamate] yielded an EC50 [1] of 0.001 to 0.01 nM, an EC50 [2] of 1 to 100 nM and an EC50 [3] of 0.01 to 0.1 nM. For the same molecule, the EC50 [4] was 0.001 to 0.01 nM, the EC50 [5] was 1 to 100 nM and the EC50 [6] was 1 to 100 nM.
For CCCCC1(CCCC)c2cc(NC(=O)[C@@H]3CC4(CC4)CN3C(=O)[C@H](NC(=O)OC)c3ccccc3)ccc2-c2ccc(-c3cnc([C@@H]4CCCN4C(=O)[C@@H](NC(=O)OC)C(C)C)[nH]3)cc21 [Example 26, methyl ((S)-1-((S)-2-(5-(9,9-dibutyl-7-((S)-5-((R)-2-((methoxycarbonyl)amino)-2-phenylacetyl)-5-azaspiro[2.4]heptane-6-carboxyamido)-9H-fluorene-2-yl)-1H-imidazole-2-yl)pyrrolidine-1-yl)-3-methyl-1-oxobutane-2-yl)carbamate], the EC50 [1] was 0.001 to 0.01 nM, the EC50 [2] was 0.01 to 0.1 nM and the EC50 [3] was 0.01 to 0.1 nM. The EC50 [4] was 0.01 to 0.1 nM, the EC50 [5] was 0.1 to 1 nM and the EC50 [6] was over 100 nM.
CCCCC1(CCCC)c2cc(NC(=O)[C@@H]3CCCN3C(=O)[C@H](NC(=O)OC)c3ccccc3)ccc2-c2ccc(-c3cnc([C@@H]4CCCN4C(=O)[C@@H](NC(=O)OC)C(C)C)[nH]3)cc21 [Example 9, methyl ((S)-1-((S)-2-(5-(9,9-dibutyl-7-((S)-1-((R)-2-((methoxycarbonyl)amino)-2-phenylacetyl)pyrrolidine-2-carboxyamido)-9H-fluorene-2-yl)-1H-imidazole-2-yl)pyrrolidine-1-yl)-3-methyl-1-oxobutane-2-yl)carbamate] was tested, and the EC50 [1] was 0.001 to 0.01 nM, the EC50 [2] was 0.01 to 0.1 nM and the EC50 [3] was 0.01 to 0.1 nM. For the same molecule, the EC50 [4] was 0.01 to 0.1 nM, the EC50 [5] was 0.01 to 0.1 nM and the EC50 [6] was 0.1 to 1 nM.
CCCCC1(CCCC)c2cc(NC(=O)[C@@H]3C[C@H](O)CN3C(=O)[C@H](NC(=O)OC)c3ccccc3)ccc2-c2ccc(NC(=O)[C@@H]3C[C@H](O)CN3C(=O)[C@H](NC(=O)OC)c3ccccc3)cc21 [Example 35, dimethyl (1R,1′R)-2,2′-((3S,3′S,5S,5′S)-5,5′-(9,9-dibutyl-9H-fluorene-2,7-diyl)bis(azanediyl)bis(oxomethylene)bis(3-hydroxypyrrolidine-5,1-diyl))bis(2-oxo-1-phenylethane-2,1-diyl)dicarbamate] was tested, and the EC50 [1] was 0.01 to 0.1 nM, the EC50 [2] was 1 to 100 nM and the EC50 [3] was 0.01 to 0.1 nM. The EC50 [4] was 0.001 to 0.01 nM, the EC50 [5] was 0.1 to 1 nM and the EC50 [6] was 1 to 100 nM.
CCCCC1(CCCC)c2cc(NC(=O)[C@@H]3CC(=O)CN3C(=O)[C@H](NC(=O)OC)c3ccccc3)ccc2-c2ccc(NC(=O)[C@@H]3CC(=O)CN3C(=O)[C@H](NC(=O)OC)c3ccccc3)cc21 [Example 6, dimethyl ((1R,1′R)-((5S,5′S)-(((9,9-dibutyl-9H-fluorene-2,7-diyl)bis(azanediyl))bis(carbonyl))bis(3-oxopyrrolidine-5,1-diyl))bis(2-oxo-1-phenylethane-2,1-diyl))dicarbamate] was tested, and the EC50 [1] was 0.01 to 0.1 nM, the EC50 [2] was 0.1 to 1 nM and the EC50 [3] was 0.01 to 0.1 nM. The EC50 [4] was 0.001 to 0.01 nM, the EC50 [5] was 0.1 to 1 nM and the EC50 [6] was 1 to 100 nM.
With CCCCC1(CCCC)c2cc(NC(=O)[C@@H]3C[C@@H](O)CN3C(=O)[C@H](NC(=O)OC)c3ccccc3)ccc2-c2ccc(-c3cnc([C@@H]4CCCN4C(=O)[C@@H](NC(=O)OC)C(C)C)[nH]3)cc21 [Example 31, methyl((S)-1-((S)-2-(5-(9,9-dibutyl-7-((2S,4R)-4-hydroxy-1-((R)-2-((methoxycarbonyl)amino)-2-phenylacetyl)pyrrolidine-2-carboxyamido)-9H-fluorene-2-yl)-1H-imidazole-2-yl)pyrrolidine-1-yl)-3-methyl-1-oxobutane-2-yl)carbamate] the EC50 [1] was 0.01 to 0.1 nM, the EC50 [2] was 0.1 to 1 nM and the EC50 [3] was 0.1 to 1 nM. For the same molecule, the EC50 [4] was 0.1 to 1 nM, the EC50 [5] was 0.01 to 0.1 nM and the EC50 [6] was 1 to 100 nM.
COC(=O)N[C@H](C(=O)N1CCC[C@@H]1C(=O)Nc1ccc2c(c1)C(CCCCC(F)(F)F)(CCCCC(F)(F)F)c1cc(NC(=O)[C@@H]3CCCN3C(=O)[C@H](NC(=O)OC)c3ccccc3)ccc1-2)c1ccccc1 [Example 5, methyl ((R)-2-((S)-2-((7-((R)-1-((S)-2-((methoxycarbonyl)amino)-2-phenylacetyl)pyrrolidine-2-carboxyamido)-9,9-bis(5,5,5-trifluoropentyl)-9H-fluorene-2-yl)carbamoyl)pyrrolidine-1-yl)-2-oxo-1-phenylethyl)carbamate] was tested, and the EC50 [1] was 0.001 to 0.01 nM, the EC50 [2] was 1 to 100 nM and the EC50 [3] was 0.01 to 0.1 nM. For the same molecule, the EC50 [4] was 0.1 to 1 nM, the EC50 [5] was over 100 nM and the EC50 [6] was over 100 nM.
